The record followed here is EP1712550A2, “Substituted triazole diamine derivatives as kinase inhibitors” (priority 2000, dated 2002).

The subject of test [1] is HCT-116 colon carcinoma. Briefly: Inhibition of Cell Proliferation, 14C-thymidine incorporation, HCT-116. Conditions: Homo sapiens; Cell Line HCT-116. Type of test: cell-based. The protocol: (§1) The ability of a test compound to inhibit the proliferation of cell growth was determined by measuring incorporation of ^14C-labelled thymidine into newly synthesized DNA within the cells. This method was used on cell lines derived from carcinomas originating from several tissues such as HeLa cervical adenocarcinoma (American Type Culture Collection (ATCC), Virginia, Cat. #CCL-2), A375 malignant melanoma (ATCC CRL-1619), SK-OV-3 ovarian adenocarcinoma (ATCC HTB-77) HCT-116 colon carcinoma (CCL-247), PC-3 prostate adenocarcinoma (ATCC CRL-1435), and MDA-MB-231 (Xenogen Corp.) In this way the effect of a compound on cell growth of cells with many different phenotypes can be determined. Cells were trypsinized and counted and 3000-8000 cells were added to each well of a 96-well CytoStar tissue culture treated scintillating microplate (Amersham #RPNQ0160) in complete medium in a volume of 100 µl. Cells were incubated for 24 hours in complete medium at 37°C in an atmosphere containing 5% CO2. Next, 1 µl of test compound in 100% DMSO was added to the wells of the plate. DMSO only was added to control wells. Cells were incubated for 24 more hours in complete medium at 37°C in an atmosphere containing 5% CO2. Methyl^14C-thymidine 56 mCi/mmol (NEN #NEC568 or Amersham #CFA532) was diluted in complete medium and 0.2 uCi/well was added to each well of the CytoStar plate in a volume of 20 ul. The plate was incubated for 24 hours at 37°C plus 5% CO2 in drug plus ^14C-thymidine. The contents of the plate were discarded into a ^14C radioactive waste container by inverting the plate and the plate was washed twice with 200 µl PBS. 200 µl of PBS is added to each well. The top of the plate was sealed with a transparent plate sealer and a white plate backing sealer (Packard #6005199) was applied to the bottom of the plate. The degree of methyl ^14C-thymidine incorporation was quantified on a Packard Top Count.
A general note: Dividing cells build labelled thymidine or BrdU into new DNA.

The target in test [2] is T1, EGFR (epidermal growth factor receptor) (Homo sapiens, UniProt P00533).
T1 construct: is purified from human A431 cell membranes (Sigma, St. Louis, MO, Cat.# E3641); purchased Sigma, St. Louis, MO E3641; host or cells: human A431 cell membranes (endogenous protein)
T1 sequence (P00533 25-1210): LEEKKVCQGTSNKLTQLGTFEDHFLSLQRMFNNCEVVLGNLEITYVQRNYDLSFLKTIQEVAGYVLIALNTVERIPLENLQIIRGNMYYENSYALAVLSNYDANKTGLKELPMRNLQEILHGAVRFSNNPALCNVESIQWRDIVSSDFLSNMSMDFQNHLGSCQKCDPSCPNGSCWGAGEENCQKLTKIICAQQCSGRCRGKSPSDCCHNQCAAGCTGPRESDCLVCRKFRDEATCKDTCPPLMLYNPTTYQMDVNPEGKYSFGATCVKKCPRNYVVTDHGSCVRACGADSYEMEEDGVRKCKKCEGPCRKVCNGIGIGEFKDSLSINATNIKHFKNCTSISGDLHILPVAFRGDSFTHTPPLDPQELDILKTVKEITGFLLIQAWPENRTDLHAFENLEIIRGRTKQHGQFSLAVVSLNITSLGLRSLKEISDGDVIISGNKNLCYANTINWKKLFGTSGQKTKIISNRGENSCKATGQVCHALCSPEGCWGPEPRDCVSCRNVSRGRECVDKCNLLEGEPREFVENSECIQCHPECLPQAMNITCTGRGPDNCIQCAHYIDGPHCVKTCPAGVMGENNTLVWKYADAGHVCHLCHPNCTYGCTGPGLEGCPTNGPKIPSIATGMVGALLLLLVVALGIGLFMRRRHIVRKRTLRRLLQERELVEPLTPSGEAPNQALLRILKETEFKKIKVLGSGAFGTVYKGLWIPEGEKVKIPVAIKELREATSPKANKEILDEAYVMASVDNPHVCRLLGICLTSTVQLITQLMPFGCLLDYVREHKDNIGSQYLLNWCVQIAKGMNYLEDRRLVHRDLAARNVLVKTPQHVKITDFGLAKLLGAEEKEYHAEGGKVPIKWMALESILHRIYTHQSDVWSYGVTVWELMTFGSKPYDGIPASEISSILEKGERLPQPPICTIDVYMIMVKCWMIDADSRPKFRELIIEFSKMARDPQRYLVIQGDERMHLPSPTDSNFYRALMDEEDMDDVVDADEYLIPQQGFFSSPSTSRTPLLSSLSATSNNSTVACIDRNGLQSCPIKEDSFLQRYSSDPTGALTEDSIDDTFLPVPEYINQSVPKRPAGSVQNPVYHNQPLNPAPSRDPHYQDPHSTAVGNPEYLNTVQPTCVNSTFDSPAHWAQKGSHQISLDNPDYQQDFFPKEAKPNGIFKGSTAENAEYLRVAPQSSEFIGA
As to the kind of experiment: Kinase Selectivity Assay EGF-R. The test is classed as biochemical.

The test system of test [3] is PC-3 prostate adenocarcinoma. Briefly: Inhibition of Cell Proliferation, 14C-thymidine incorporation, PC-3. The test is classed as cell-based. Conditions: Cell Line PC-3. As for the experimental part: as §1
Test [4] concerns HeLa cervical adenocarcinoma. Briefly: Inhibition of Cell Proliferation, 14C-thymidine incorporation, HeLa. The test is classed as cell-based. To be noted: Homo sapiens; Cell Line HeLa. As for the experimental part: as §1
Test [5] relates to MDA-MB-231. Briefly: Inhibition of Cell Proliferation, 14C-thymidine incorporation, MDA-MB-231. Type of test: cell-based. Conditions: Homo sapiens; Cell Line MDA-MB-231.
Protocol: The ability of a test compound to inhibit the proliferation of cell growth was determined by measuring incorporation of ^14C-labelled thymidine into newly synthesized DNA within the cells. […] Cells were trypsinized and counted and 3000-8000 cells were added to each well of a 96-well CytoStar tissue culture treated scintillating microplate (Amersham #RPNQ0160) in complete medium in a volume of 100 µl. Cells were incubated for 24 hours in complete medium at 37°C in an atmosphere containing 5% CO2. Next, 1 µl of test compound in 100% DMSO was added to the wells of the plate. DMSO only was added to control wells. Cells were incubated for 24 more hours in complete medium at 37°C in an atmosphere containing 5% CO2. […] The plate was incubated for 24 hours at 37°C plus 5% CO2 in drug plus ^14C-thymidine. The contents of the plate were discarded into a ^14C radioactive waste container by inverting the plate and the plate was washed twice with 200 µl PBS. 200 µl of PBS is added to each well. […] The degree of methyl ^14C-thymidine incorporation was quantified on a Packard Top Count.
Test [6] concerns the target Insulin Receptor Kinase (Homo sapiens, UniProt P06213). Briefly: Kinase Selectivity Assay Insulin Receptor Kinase. The test is classed as biochemical. Conditions: read-out: Kinase Assay (IC50 uM) Insulin R Kinase.
Test [7] concerns A375 malignant melanoma. Briefly: Inhibition of Cell Proliferation, 14C-thymidine incorporation, A375. Type of test: cell-based. Conditions: Homo sapiens, A-375; Cell Line A375. The protocol: as §1
The target of test [8] is T2, CDK1:Cyclin-B (Homo sapiens, UniProt P06493).
T2 construct: purchased New England Biolabs, Beverly, MA 6020; host or cells: insect cells
T2 sequence (P06493 whole entry): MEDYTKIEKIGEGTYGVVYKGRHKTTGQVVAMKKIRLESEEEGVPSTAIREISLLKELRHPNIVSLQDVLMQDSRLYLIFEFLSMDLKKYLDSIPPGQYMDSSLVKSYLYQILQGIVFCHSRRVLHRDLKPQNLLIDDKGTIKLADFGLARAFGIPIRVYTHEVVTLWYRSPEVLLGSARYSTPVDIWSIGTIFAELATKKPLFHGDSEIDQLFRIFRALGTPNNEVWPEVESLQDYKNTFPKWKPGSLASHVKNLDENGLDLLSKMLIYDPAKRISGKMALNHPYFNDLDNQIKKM
T2 sequence (P14635 whole entry partner): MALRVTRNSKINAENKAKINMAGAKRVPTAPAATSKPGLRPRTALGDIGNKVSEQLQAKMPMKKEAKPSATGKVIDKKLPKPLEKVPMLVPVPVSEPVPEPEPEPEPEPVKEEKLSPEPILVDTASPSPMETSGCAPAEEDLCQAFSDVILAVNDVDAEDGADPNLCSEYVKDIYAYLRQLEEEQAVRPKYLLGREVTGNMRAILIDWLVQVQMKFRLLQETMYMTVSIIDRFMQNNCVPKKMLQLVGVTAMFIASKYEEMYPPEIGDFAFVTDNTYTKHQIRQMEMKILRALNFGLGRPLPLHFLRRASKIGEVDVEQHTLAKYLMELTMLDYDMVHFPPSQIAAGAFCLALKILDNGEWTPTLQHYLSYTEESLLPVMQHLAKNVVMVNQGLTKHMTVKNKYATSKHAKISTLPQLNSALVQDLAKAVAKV
As to the kind of experiment: CDK1 Screening Assay. Type of test: biochemical. To be noted: read-out: Kinase Assay (IC50 uM) CDK1. The protocol: (§2) 70 µL of the kinase reaction mixture was dispensed into the well of a streptavidin coated FlashPlate™ (Cat. # SMP103, NEN, Boston, MA). Then 1 µL of test compound stock in 100% DMSO was added to the wells resulting in a final concentration of 1% DMSO in the reaction with a 100 µl final reaction volume. Next, CDK1:Cyclin-B protein was diluted in 50 mM Tris-HCl pH=8.0, 0.1% BSA at a concentration of 1 ng per µL and 30 µl (30ng enzyme per test well) was added to each well to initiate the reaction. The reaction was incubated for one hour at 30°C. At the end of the 1-hour incubation, the reaction was terminated by aspirating the reaction mixture from the plate and washing the wells twice with PBS containing 100 mM EDTA. The histone-H1 biotinylated peptide substrate became immobilized on the Flashplate™ and the incorporation of ^33P-γ-ATP was measured by reading the plate on a scintillation counter. Inhibition of the enzymatic activity of CDK1 was measured by observing a reduced amount of ^33P-γ-ATP incorporated into the immobilized peptide. […]

Test [9] concerns the target T3, VEGF-R (vascular endothelial growth factor receptor-2) (Rattus norvegicus, UniProt O08775).
T3 construct: 6xHis (polyhistidine) (N)
As to the kind of experiment: VEGF-R Screening Assay. Type of test: biochemical. To be noted: read-out: Kinase Assay (IC50 uM) VEGF-R. The protocol: as §2, with “a 100 µL final reaction” for “a 100 µl final reaction”, “volume. Next, soluble rat tyrosine kinase containing an N-terminal 6XHIS tag was diluted” for “volume. Next, CDK1:Cyclin-B protein was diluted”, “concentration of 5 ng per” for “concentration of 1 ng per”, “and 30 µL (150 ng enzyme per” for “and 30 µl (30ng enzyme per”, “EDTA. The PLC1 biotinylated peptide” for “EDTA. The histone-H1 biotinylated peptide”, “activity of the VEGF-R was measured” for “activity of CDK1 was measured”

Test [10] has as its target PKC (protein kinase-C). Briefly: Kinase Selectivity Assay PKC. The test is classed as biochemical, human.
The target of test [11] is T4, CDK2 in complex with cyclin A (Homo sapiens, UniProt P24941).
T4 construct: purchased Upstate Biotech, Lake Placid, NY
As to the kind of experiment: Kinase Selectivity Assay CDK2. The test is classed as biochemical.

SMILES strings stand for the structures. pIC50: −log10 of the molar value. Where two headings read alike, the source gives them in different places.

The term IC50 denotes the concentration needed to halve the response being measured. As usually defined, the pIC50 is −log10 of the IC50, conventionally taken in molar units.

Insulin Receptor Kinase, sequence (P06213 980-1352): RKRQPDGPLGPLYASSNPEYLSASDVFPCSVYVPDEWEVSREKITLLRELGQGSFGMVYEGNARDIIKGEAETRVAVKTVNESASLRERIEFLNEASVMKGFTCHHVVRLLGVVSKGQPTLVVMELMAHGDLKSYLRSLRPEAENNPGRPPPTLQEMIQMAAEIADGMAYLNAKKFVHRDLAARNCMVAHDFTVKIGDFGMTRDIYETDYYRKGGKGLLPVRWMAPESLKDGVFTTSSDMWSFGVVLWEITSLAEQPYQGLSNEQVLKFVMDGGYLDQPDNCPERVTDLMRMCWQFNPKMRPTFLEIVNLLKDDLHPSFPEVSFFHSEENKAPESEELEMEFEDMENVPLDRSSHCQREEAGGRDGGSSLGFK
T3 sequence (O08775 786-1343): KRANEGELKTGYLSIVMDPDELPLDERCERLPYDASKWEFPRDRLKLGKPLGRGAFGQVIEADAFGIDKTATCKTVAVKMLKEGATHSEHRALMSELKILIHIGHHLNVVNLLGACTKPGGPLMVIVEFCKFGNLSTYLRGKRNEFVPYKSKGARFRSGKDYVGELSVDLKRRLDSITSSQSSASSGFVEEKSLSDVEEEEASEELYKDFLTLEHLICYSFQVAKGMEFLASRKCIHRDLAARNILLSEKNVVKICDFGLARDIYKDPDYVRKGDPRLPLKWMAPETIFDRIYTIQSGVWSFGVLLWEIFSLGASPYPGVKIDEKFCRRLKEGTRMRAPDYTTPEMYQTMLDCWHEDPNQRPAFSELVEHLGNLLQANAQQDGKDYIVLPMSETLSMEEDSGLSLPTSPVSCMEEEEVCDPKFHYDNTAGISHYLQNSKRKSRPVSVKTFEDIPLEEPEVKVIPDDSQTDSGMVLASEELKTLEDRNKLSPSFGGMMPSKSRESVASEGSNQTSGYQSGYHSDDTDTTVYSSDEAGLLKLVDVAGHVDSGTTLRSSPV

Take `Cc1cc(C)c(C(=O)n2nc(Nc3ccc(S(N)(=O)=O)cc3)nc2N)s1` [Cpd 33, 4-[[5-amino-1-[(3,5-dimethyl-2-thienyl)carbonyl]-1H-1,2,4-triazol-3-yl]amino]-benzenesulfonamide]: the IC50 was 27 nM in [1], 37 nM in test [3], 72 nM in test [4] and 171 nM in test [5]. In addition, the pIC50 in test [2] (Kinase Selectivity, Table 2, read-out: EGF-R IC50) was less than 4.00.

As for `Cc1cc(C)c(C(=O)n2nc(Nc3ccc(NS(C)(=O)=O)cc3)nc2N)s1` [Cpd 108, N-[4-[[5-amino-1-[(3,5-dimethyl-2-thienyl)carbonyl]-1H-1,2,4-triazol-3-yl]amino]phenyl]-methanesulfonamide], the IC50 in test [6] was 0.81 µM; in [1], 76 nM; in test [2] (read-out: Kinase Assay (IC50 uM) EGF-R), more than 100 µM; in test [7], 259 nM; in test [4], 221 nM.

Take `CCc1ccc(C(=O)n2nc(Nc3ccc(S(=O)(=O)Nc4ccccn4)cc3)nc2N)s1` [Cpd 119, 4-[[5-amino-1-[(5-ethyl-2-thienyl)carbonyl]-1H-1,2,4-triazol-3-yl]amino]-N-(2-pyridinyl)-benzenesulfonamide]: the IC50 in test [8] is 0.067 µM; in test [1], 117 nM; in [9], 0.057 µM; in test [10], more than 100 µM; in test [7] it was 199 nM; in [4], 146 nM.

In test [11], `Nc1nc(Nc2cccc(Cl)c2)n(C(=O)c2c(F)cccc2F)n1` [Cpd 126, N^5-(3-chlorophenyl)-1-(2,6-difluorobenzoyl)-1H-1,2,4-triazole-3,5-diamine] displayed an IC50 of more than 100 µM.

`Nc1nc(Nc2cccc(Cl)c2)n(C(=O)c2ccccc2)n1` [Cpd 127, 1-benzoyl-N^5-(3-chlorophenyl)-1H-1,2,4-triazole-3,5-diamine] registered an IC50 in test [11] of more than 100 µM.
